Data set [1] in a line: Solubility of pharmaceutically acceptable salts in water. Particulars: distilled deionized water, sonicated 20 min, under 25° C., HPLC. It is filed as physicochemical. How it is done:
The formulator can determine the solubility of the pharmaceutically acceptable salts of the disclosed inhibitors by any method desirable. The following is a non-limiting example of a procedure for evaluating the solubility of a salt of a disclosed inhibitor. A suspension of tert-butyl-{[1-(4-chlorobenzyl)-3-hydroxy-2-oxo-1,2-dihydropyridin-4-yl]methyl}-piperazine-1-carboxylate methanesulfonate (26.6 mg) in distilled deionized water (3.0 mL) is sonicated for 20 min with water bath temperature under 25° C. The suspension is filtered to remove any insoluble salt. The clear filtrate solution (200 μL) is diluted with distilled deionized water (800 μL) and subjected to HPLC analysis. The following are results for the pharmaceutically acceptable salts outlined in Table VII above.

Data set [2] concerns the target HIFPH2 (EGLN1) (Homo sapiens (Human), UniProt Q9GZT9). In words: EGLN-1 Activity Assay (MALDI-TOF MS). Particulars: recombinant human EGLN-1-179/426, HIF-1α peptide 556-574. It is filed as biochemical. As for the experimental part:
The enzyme, quantity predetermined to hydroxylate 20% of substrate in 20 minutes, is added to start the reaction. Where inhibitors are used, compounds are prepared in dimethyl sulfoxide at 10-fold final assay concentration. After 20 minutes at room temperature, the reaction is stopped by transferring 10 μL of reaction mixture to 50 μL of a mass spectrometry matrix solution (α-cyano-4-hydroxycinnamic acid, 5 mg/mL in 50% acetonitrile/0.1% TFA, 5 mM NH4PO4). Two microliters of the mixture is spotted onto a MALDI-TOF MS target plate for analysis with an Applied Biosystems (Foster City, Calif.) 4700 Proteomics Analyzer MALDI-TOF MS equipped with a Nd:YAG laser (355 nm, 3 ns pulse width, 200 Hz repetition rate). Hydroxylated peptide product is identified from substrate by the gain of 16 Da. Data defined as percent conversion of substrate to product is analyzed in GraphPad Prism 4 to calculate IC50 values.

Data set [3] has as its system phosphoglycerate kinase (PGK) expression. The data set is described as follows: PGK expression in murine embryonic fibroblasts. It is filed as cell-based. Particulars: 1 μM, 10 μM, vs wild type control (FIG. 12). As for the experimental part: FIG. 11 depicts the up regulation of phosphoglycerate kinase (PGK) expression in wild type murine embryonic fibroblasts as a result of treatment with a compound disclosed in Table VIII at dosages of 1 μM (E), 10 μM (F), and 50 μM (G) vs. wild type control (H) and the lack of up regulation of PGK expression in HIF-1 knock out cells as a result of treatment with a compound disclosed in Table VIII at dosages of 1 μM (A), 10 μM (B), and 50 μM (C) and HIF-1 knock out control (D). Both cell types were treated for 7 hours.

This note sets out measurements from US8778412B2, “Methods for increasing the stabilization of hypoxia inducible factor-1 alpha” (Aerpio Therapeutics Inc., priority 2009, dated 2014).

HIFPH2 (EGLN1), sequence (Q9GZT9 179-426): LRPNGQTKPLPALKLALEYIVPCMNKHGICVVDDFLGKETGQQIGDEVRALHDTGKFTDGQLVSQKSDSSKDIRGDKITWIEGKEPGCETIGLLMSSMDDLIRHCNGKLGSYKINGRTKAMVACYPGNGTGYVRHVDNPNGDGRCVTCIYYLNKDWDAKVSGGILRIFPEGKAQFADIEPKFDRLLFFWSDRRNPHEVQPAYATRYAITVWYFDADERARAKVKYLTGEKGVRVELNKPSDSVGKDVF

For the compound `CC(C)(C)OC(=O)N1CCN(Cc2ccn(Cc3ccc(Cl)cc3)c(=O)c2O)CC1` [Compound A41], the “Solubility” value in data set [1] is roughly 0.001 mg/mL.

In the case of `O=c1c(O)c(CN2CCN(Cc3ccccc3)CC2)ccn1Cc1ccccc1` [Compound B9, 1-benzyl-3-hydroxy-4-[(4-benzylpiperazin-1-yl)methyl]pyridin-2(1H)-one], in data set [2], the 50% inhibitory concentration (IC50) was 17 µM.

Turning to `O=c1c(O)c(CNCc2ccccc2)ccn1Cc1ccc(Cl)cc1` [Compound C1, 1-(4-chlorobenzyl)-3-hydroxy-4-[(4-benzylamino)methyl]pyridin-2(1H)-one], the 50% inhibitory concentration (IC50) in data set [2] is 12 µM.

With `O=c1c(O)cccn1Cc1cccc(Cl)c1` [Compound F2, 1-(3-chlorobenzyl)-3-hydroxypyridin-2(1H)-one], the “PGK expression in wild type murine embryonic fibroblasts” value in data set [3] is recorded as “up regulation”.

For the compound `CC(C)(C)OC(=O)N1CCN(Cc2ccn(Cc3ccc(Cl)cc3)c(=O)c2O)CC1.CS(=O)(=O)O` [methanesulfonate, tert-butyl-{[1-(4-chlorobenzyl)-3-hydroxy-2-oxo-1,2-dihydropyridin-4-yl]methyl}-piperazine-1-carboxylate methanesulfonate], the “Solubility” value in data set [1] is given as 16.6 mg/mL.

What is called Solubility is the dissolved amount per volume that the medium holds. By IC50 is commonly meant the concentration that gives 50% inhibition.
